Measurements reported in patent US10548899B2, “Quinazolinone and benzotriazinone compounds with cholinergic muscarinin M1 receptor positive allosteric modulator activity” (TAKEDA PHARMACEUTICAL COMPANY LIMITED, priority 2015, dated 2020).

Target: T1, human M1 receptor (hCHRM1) (Homo sapiens, UniProt P11229)
T1 construct: expressed in transfected cells; host or cells: CHO-K1
T1 sequence (P11229 1-460): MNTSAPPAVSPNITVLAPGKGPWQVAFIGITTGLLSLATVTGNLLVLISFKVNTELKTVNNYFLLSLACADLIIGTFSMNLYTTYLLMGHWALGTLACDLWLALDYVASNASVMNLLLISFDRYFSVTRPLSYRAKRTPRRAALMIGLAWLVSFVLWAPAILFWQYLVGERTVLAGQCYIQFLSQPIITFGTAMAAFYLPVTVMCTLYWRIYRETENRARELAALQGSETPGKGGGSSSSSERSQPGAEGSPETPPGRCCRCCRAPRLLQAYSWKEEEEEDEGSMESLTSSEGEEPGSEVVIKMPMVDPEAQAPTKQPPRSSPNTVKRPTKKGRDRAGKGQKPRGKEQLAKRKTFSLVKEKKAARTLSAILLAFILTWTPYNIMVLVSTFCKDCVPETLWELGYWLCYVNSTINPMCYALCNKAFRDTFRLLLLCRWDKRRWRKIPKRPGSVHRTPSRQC
Experiment: Measurement of M1 receptor positive allosteric modulator (M1PAM) activity (calcium fluorescence, Fluo-4, FDSS)
Type: cell-based
Conditions: for activity (%) at 10 μM: 10 μM test compound, acetylcholine EC20 (final 0.8 nM) present, 100% = acetylcholine 1 μM, 0% = DMSO, CHO-K1 hCHRM1 cells; for EC50: inflection point of concentration-dependent curve, CHO-K1 cells stably expressing hCHRM1, in presence of acetylcholine at EC20 concentration (final 0.8 nM), read-out: IP value
Description: Measurement of M1 receptor positive allosteric modulator (M1PAM) activity
The activity of a test compound in the presence of acetylcholine at EC20 concentration (final concentration 0.8 nM), which affords an action corresponding to about 20% of the maximum activity, was measured as PAM activity. The method is as follows. CHO-K1 cells stably expressing a human M1 receptor (hCHRM1) were plated on a 384-well black clear bottom plate (BD Falcon) at 5,000 cells/well, and cultured in an incubator at 37° C., 5% CO2 for 1 day. The medium in the cell plate was removed, and assay buffer A containing a calcium indicator (Recording medium (DOJINDO LABORATORIES), 0.1% BSA (Wako Pure Chemical Industries, Ltd.), 2.5 μg/mL Fluo-4 AM (DOJINDO LABORATORIES), 0.08% Pluronic F127 (DOJINDO LABORATORIES) and 1.25 mM probenecid (DOJINDO LABORATORIES) were added at 30 μL/well. The cells were left standing in the incubator at 37° C., 5% CO2 for 30 min, and further left standing at room temperature for 30 min. A test compound prepared by diluting with assay buffer B (HESS (Invitrogen), 20 mM HEPES (Invitrogen), 0.1% BSA) containing 3.2 nM acetylcholine was added at 10 μL/well, and the fluorescence was measured by FDSS/μcell (Hamamatsu Photonics K.K.) for 1 min every for 1 second. With the definition that the amount of change in the fluorescence on addition of acetylcholine (final concentration 1 μM) is 100% and that on addition of DMSO instead of a test compound is 0%, the activity (%) of the test compound was calculated, and the inflection point in the concentration-dependent curve of the test compound was calculated as IP values.

| activity (%) at 10 μM [%] | EC50 [nM] | Compound |
| --- | --- | --- |
| 97 | 85 | Cc1c(Cc2ccc(-c3cnn(C)c3)nc2)cc2c(=O)n(CC3CCCO3)nnc2c1C (stereo not shown) [Example 39, 7,8-dimethyl-6-((6-(1-methyl-1H-pyrazol-4-yl)pyridin-3-yl)methyl)-3-(tetrahydrofuran-2-ylmethyl)-1,2,3-benzotriazin-4(3H)-one] |
| 101 | 29 | Cc1c(Cc2ccc(-n3cccn3)cc2)cc2c(=O)n([C@H]3COCC[C@@H]3O)nnc2c1C [Example 41, 3-((3S,4S)-4-hydroxytetrahydro-2H-pyran-3-yl)-7,8-dimethyl-6-(4-(1H-pyrazol-1-yl)benzyl)-1,2,3-benzotriazin-4(3H)-one] |
| 100 | 14 | Cc1c(Cc2ccc(-n3cccn3)cc2)cc2c(=O)n([C@H]3COCC[C@@H]3O)nnc2c1C [Example 43, 3-((3S,4S)-4-hydroxytetrahydro-2H-pyran-3-yl)-7,8-dimethyl-6-(4-(1H-pyrazol-1-yl)benzyl)-1,2,3-benzotriazin-4(3H)-one] |
| 100 | 32 | Cc1c(Cc2ccc(-n3cccn3)nc2)cc2c(=O)n([C@H]3COCC[C@@H]3O)nnc2c1C [Example 44, 3-[(3S,4S)-4-hydroxytetrahydro-2H-pyran-3-yl]-7,8-dimethyl-6-{[6-(1H-pyrazol-1-yl)pyridin-3-yl]methyl}-1,2,3-benzotriazin-4(3H)-one] |
| 95 | 25 | Cc1c(Cc2ccc(-c3ccn(C)n3)nc2)cc2c(=O)n(CC3CCCO3)nnc2c1Cl (stereo not shown) [Example 45, 8-chloro-7-methyl-6-((6-(1-methyl-1H-pyrazol-3-yl)pyridin-3-yl)methyl)-3-(tetrahydrofuran-2-ylmethyl)1,2,3-benzotriazin-4(3H)-one] |
| 95 | 38 | Cc1c(Cc2ccc(-c3ccn(C)n3)cc2)cc2c(=O)n([C@H]3COCC[C@@H]3O)nnc2c1C [Example 47, 3-((3S,4S)-4-hydroxytetrahydro-2H-pyran-3-yl)-7,8-dimethyl-6-(4-(1-methyl-1H-pyrazol-3-yl)benzyl)-1,2,3-benzotriazin-4(3H)-one] |
| 98 | 59 | Cc1cc2nnn([C@H]3COCC[C@@H]3O)c(=O)c2cc1Cc1ccc(-c2ccn(C)n2)cc1 [Example 48, 3-((3S,4S)-4-hydroxytetrahydro-2H-pyran-3-yl)-7-methyl-6-(4-(1-methyl-1H-pyrazol-3-yl)benzyl)-1,2,3-benzotriazin-4(3H)-one] |
| 97 | 18 | Cc1c(Cc2ccc(-n3cccn3)cc2)cc2c(=O)n([C@H]3COCC[C@@H]3O)nnc2c1F [Example 49, 8-fluoro-3-((3S,4S)-4-hydroxytetrahydro-2H-pyran-3-yl)-7-methyl-6-(4-(1H-pyrazol-1-yl)benzyl)-1,2,3-benzotriazin-4(3H)-one] |
| 96 | 23 | Cc1c(Cc2ccc(Cl)nc2)cc2c(=O)n([C@H]3CCCC[C@@H]3O)cnc2c1C [Example 54, 6-((6-chloropyridin-3-yl)methyl)-3-((1S,2S)-2-hydroxycyclohexyl)-7,8-dimethylquinazolin-4(3H)-one] |
| 99 | 7.4 | Cc1c(Cc2ccc(-n3cccn3)cc2)cc2c(=O)n([C@H]3CCOC[C@@H]3O)cnc2c1C [Example 55, 3-((3R,4S)-3-hydroxytetrahydro-2H-pyran-4-yl)-7,8-dimethyl-6-(4-(1H-pyrazol-1-yl)benzyl)quinazolin-4(3H)-one] |
| 98 | 15 | Cc1c(Cc2ccc(-n3cccn3)cc2)cc2c(=O)n([C@H]3CCOC[C@@H]3O)nnc2c1C [Example 56, 3-((3R,4S)-3-hydroxytetrahydro-2H-pyran-4-yl)-7,8-dimethyl-6-(4-(1H-pyrazol-1-yl)benzyl)-1,2,3-benzotriazin-4(3H)-one] |
| 98 | 7.3 | Cc1c(Cc2ccc(-c3ccn(C)n3)nc2)cc2c(=O)n([C@H]3CCCC[C@@H]3O)cnc2c1C [Example 57, 3-((1S,2S)-2-hydroxycyclohexyl)-7,8-dimethyl-6-((6-(1-methyl-1H-pyrazol-3-yl)pyridin-3-yl)methyl)quinazolin-4(3H)-one] |
| 95 | 14 | Cc1c(Cc2ccc(-c3ccn(C)n3)nc2)cc2c(=O)n([C@H]3COCC[C@@H]3O)nnc2c1C [Example 58, 3-((3S,4S)-4-hydroxytetrahydro-2H-pyran-3-yl)-7,8-dimethyl-6-((6-(1-methyl-1H-pyrazol-3-yl)pyridin-3-yl)methyl)-1,2,3-benzotriazin-4(3H)-one] |
| 94 | 4.8 | Cc1c(Cc2ccc(-c3cnn(C)c3)nc2)cc2c(=O)n([C@H]3CCCC[C@@H]3O)cnc2c1C [Example 59, 3-((1S,2S)-2-hydroxycyclohexyl)-7,8-dimethyl-6-((6-(1-methyl-1H-pyrazol-4-yl)pyridin-3-yl)methyl)quinazolin-4(3H)-one] |
